Target: CK2A1 (CK2α/β) (Homo sapiens, UniProt P68400)
Assay: CK2 kinase assay, CK2A1 (CK2α/β)
Assay type: biochemical
Settings: Table A; read-out: CK2A1 (CK2α/β) (IC50)

Chain of CK2A1 (CK2α/β) (P68400 whole entry, species assumed): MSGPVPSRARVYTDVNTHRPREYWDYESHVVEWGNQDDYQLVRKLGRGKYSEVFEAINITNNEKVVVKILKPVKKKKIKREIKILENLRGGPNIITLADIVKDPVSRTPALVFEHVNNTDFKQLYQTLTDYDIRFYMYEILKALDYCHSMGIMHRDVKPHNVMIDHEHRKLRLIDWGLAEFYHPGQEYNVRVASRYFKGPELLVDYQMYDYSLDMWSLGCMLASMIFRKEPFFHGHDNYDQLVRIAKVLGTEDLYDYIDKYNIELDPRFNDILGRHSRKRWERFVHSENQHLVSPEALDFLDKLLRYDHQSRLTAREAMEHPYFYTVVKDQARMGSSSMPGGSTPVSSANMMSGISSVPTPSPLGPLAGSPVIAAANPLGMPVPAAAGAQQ
Chain of CK2A1 (CK2α/β) (P67870 whole entry partner, species assumed): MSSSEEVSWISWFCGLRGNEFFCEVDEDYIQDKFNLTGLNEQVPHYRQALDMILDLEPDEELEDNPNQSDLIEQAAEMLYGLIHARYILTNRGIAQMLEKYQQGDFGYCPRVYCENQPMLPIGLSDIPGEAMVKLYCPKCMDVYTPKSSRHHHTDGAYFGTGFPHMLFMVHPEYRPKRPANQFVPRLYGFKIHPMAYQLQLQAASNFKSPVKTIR

## N#Cc1cc(Nc2nc(NC3CC3)c3ncc(C#N)n3n2)c(Cl)c(N2CC[C@@H](NC(=O)CN3CCOCC3)[C@H](O)C2)c1 (racemic) [Example 183, (+/−)-N-((3R,4R)-1-(2-chloro-5-cyano-3-((7-cyano-4-(cyclopropylamino)imidazo[2,1-f][1,2,4]triazin-2-yl)amino)phenyl)-3-hydroxypiperidin-4-yl)-2-morpholinoacetamide]
  IC50: 0.64 nM

## CN[C@@H]1CCN(c2cc(C#N)cc(Nc3nc(NC4CC4)c4ncc(C#N)n4n3)c2Cl)C[C@H]1O (racemic) [Example 186, (+/−)-2-((2-chloro-5-cyano-3-((3R,4R)-3-hydroxy-4-(methylamino)piperidin-1-yl)phenyl)amino)-4-(cyclopropylamino)imidazo[2,1-f][1,2,4]triazine-7-carbonitrile]
  IC50: 1.06 nM

## COC(=O)N(C)[C@@H]1CCN(c2cc(C#N)cc(Nc3nc(NC4CC4)c4ncc(C#N)n4n3)c2Cl)C[C@H]1O (racemic) [Example 187, (+/−)-methyl ((3R,4R)-1-(2-chloro-5-cyano-3-((7-cyano-4-(cyclopropylamino)imidazo[2,1-f][1,2,4]triazin-2-yl)amino)phenyl)-3-hydroxypiperidin-4-yl)(methyl)carbamate]
  IC50: 0.94 nM

## CO[C@@H]1CN(c2cc(C#N)cc(Nc3nc(NC4CC4)c4ncc(C#N)n4n3)c2Cl)CC[C@H]1N (racemic) [Example 188, (+/−)-2-((3-((3R,4R)-4-amino-3-methoxypiperidin-1-yl)-2-chloro-5-cyanophenyl)amino)-4-(cyclopropylamino)imidazo[2,1-f][1,2,4]triazine-7-carbonitrile]
  IC50: 200 nM

## CC(=O)N[C@@H]1CN(c2cc(C#N)cc(Nc3nc(NC4CC4)c4ncc(C#N)n4n3)c2Cl)CC[C@H]1O (racemic) [Example 190, (+/−)-N-((3R,4R)-1-(2-chloro-5-cyano-3-((7-cyano-4-(cyclopropylamino)imidazo[2,1-f][1,2,4]triazin-2-yl)amino)phenyl)-4-hydroxypiperidin-3-yl)acetamide]
  IC50: 0.48 nM

## COC(=O)N[C@@H]1CN(c2cc(C#N)cc(Nc3nc(NC4CC4)c4ncc(C#N)n4n3)c2Cl)CC[C@H]1O (racemic) [Example 191, (+/−)-methyl ((3R,4R)-1-(2-chloro-5-cyano-3-((7-cyano-4-(cyclopropylamino)imidazo[2,1-f][1,2,4]triazin-2-yl)amino)phenyl)-4-hydroxypiperidin-3-yl)carbamate]
  IC50: 0.66 nM

## COC(=O)N[C@@H]1CCN(c2cc(C#N)cc(Nc3nc(NC4CC4)c4ncc(C#N)n4n3)c2Cl)C[C@H]1OC(=O)[C@@H](N)C(C)C (racemic) [Example 192, (+/−)-(R)-(3S,4S)-1-(2-chloro-5-cyano-3-((7-cyano-4-(cyclopropylamino)imidazo[2,1-f][1,2,4]triazin-2-yl)amino)phenyl)-4-((methoxycarbonyl)amino)piperidin-3-yl 2-amino-3-methylbutanoate]
  IC50: 2.12 nM

## COC(=O)Nc1cc(Nc2nc(NC3CC3)c3ncc(C#N)n3n2)c(Cl)c(N2CC[C@@H](NC(=O)OC)[C@@H](F)C2)c1 (racemic) [Example 202, (+/−) methyl (4-chloro-3-((7-cyano-4-(cyclopropylamino)imidazo[2,1-f][1,2,4]triazin-2-yl)amino)-5-((3S,4R)-3-fluoro-4-((methoxycarbonyl)amino)-1-piperidinyl)phenyl)carbamate]
  IC50: 0.83 nM

## CC(O)CN1CCN(c2cc(C(F)F)cc(Nc3nc(NC4CC4)c4ncc(C#N)n4n3)c2Cl)CC1 (racemic) [Example 249, (+/−) 2-((2-chloro-5-(difluoromethyl)-3-(4-(2-hydroxypropyl)-1-piperazinyl)phenyl)amino)-4-(cyclopropylamino)imidazo[2,1-f][1,2,4]triazine-7-carbonitrile]
  IC50: 2.22 nM
